The text below walks through data of the supplement of paper PMC10307832.

Holding throughout (assay): relative viability (nuclei count vs DMSO), 5 days (fraction); higher = more cells survive
Compound in test [1]: CNC(=O)c1ccccc1Sc1ccc2c(/C=C/c3ccccn3)n[nH]c2c1 [Axitinib] + CS(=O)(=O)N1CCN(Cc2cc3nc(-c4cccc5[nH]ncc45)nc(N4CCOCC4)c3s2)CC1 [Pictilisib] (partner 1 µM)
Put shortly:
(§1)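 For relative viability, nuclei counts in treated wells were divided by those in vehicle wells. Lung cancer cell lines had been pin-tool dosed in 1536-well plates the day after seeding and cultured for 5 days, then fixed and stained in one step (final 0.05% Triton X-100, 1% formaldehyde, 1 ug/ml Hoechst) and imaged at 4×. Doses were one drug alone or a fixed anchor-drug dose plus five library-drug doses (not always all listed) in √10 steps, and values are duplicate-plate medians.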

Compound in test [2]: Nc1nc(Nc2ccc3c(c2)CC[C@@H](N2CCCC2)CC3)nn1-c1cc2c(nn1)-c1ccccc1CCC2 [Bemcentinib] + COc1cc2c(Oc3ccc(NC(=O)C4(C(=O)Nc5ccc(F)cc5)CC4)cc3F)ccnc2cc1OCCCN1CCOCC1 [Foretinib] (partner 0.25 µM)
An outline of the steps: as §1

Compound in test [3]: Nc1nc(Nc2ccc3c(c2)CC[C@@H](N2CCCC2)CC3)nn1-c1cc2c(nn1)-c1ccccc1CCC2 [Bemcentinib] + COc1cccc2cc(-c3nc([C@H]4CC[C@H](C(=O)O)CC4)n4ncnc(N)c34)[nH]c12 [OSI-027] (partner 0.5 µM)
Put shortly:
as §1

Compound in test [4]: CC1=CC=C(C=C1)C(=O)CN2C3=C(CCCC3)SC2=N [Pifithrin_alpha] + CS(=O)(=O)CCNCc1ccc(-c2ccc3ncnc(Nc4ccc(OCc5cccc(F)c5)c(Cl)c4)c3c2)o1 [Lapatinib] (partner 2 µM)
Put shortly: as §1

Consider NCI-H650, for which the relative viability in test [1] (first compound 0.005 µM) stood at 0.9; in test [1] (first compound 0.01581 µM) it was 1.03; in test [1] (first compound 0.05 µM), 0.764; in test [1] (first compound 0.1581 µM), 0.945; in test [1] (first compound 0.5 µM), 0.846; in test [2] (first compound 0.04 µM) it was 0.975. The relative viability in test [2] (first compound 0.1265 µM) was found to be 1.16; in test [2] (first compound 0.4 µM), 1.04; in test [2] (first compound 1.265 µM), 1.02; in test [2] (first compound 4 µM) it was 1.05; in test [3] (first compound 0.04 µM), 0.468; in test [3] (first compound 0.1265 µM), 0.501. The relative viability came out at 0.582 in test [3] (first compound 0.4 µM); 0.496 in test [3] (first compound 1.265 µM); 0.512 in test [3] (first compound 4 µM); 1.11 in test [4] (first compound 3.162 µM); 1.11 in test [4] (first compound 10 µM); 0.532 in test [4] (first compound 31.62 µM). In addition, in test [4] (first compound 100 µM), the relative viability was 0.767.
